# Laboratory results as given in patent US4444754A, “Derivatives of clavulanic acid, a process for their preparation and their use” (Beecham Group Limited, priority 1978, dated 1984).
# Like-named read-outs stand apart in the source and are kept apart here.
# How the values were obtained:
# [1] = tested on: Klebsiella aerogenes E70; experiment: in vitro MIC of ampicillin with and without the compound (synergy); type: cell-based; conditions: without the compound of Example 2, read-out: in vitro MIC of ampicillin alone
# [2] = tested on: E. coli E96 (Rtem); experiment: in-vivo test in mice infected intraperitoneally with E. coli E96 (Rtem), amoxycillin synergy; conditions: Escherichia coli, sc, read-out: CD50 of amoxycillin alone
# [3] = tested on: Staphylococcus aureus Smith; experiment: in-vivo anti-bacterial activity in mice with intraperitoneal Staphylococcus aureus Smith infection; conditions: intraperitoneal S. aureus Smith; for ED50: Staphylococcus aureus, sc, sub-cutaneous dosing 1 and 5 hours post infection
# Protocol: (§1) When tested in mice suffering from an intraperitoneal infection of Staphylococcus aureus Smith, the following results where obtained with sub-cutaneous dosing 1 and 5 hours post infection: […]
# [4] = tested on: E. coli 0111; experiment: MIC in DST agar containing 5% blood; type: cell-based; conditions: Escherichia coli
# Excerpt: (§2) The following MIC values (μg/ml) for the compound of Example 2 were obtained in DST agar containing 5% blood: […]
# [5] = tested on: E. coli ESS; experiment: MIC in DST agar containing 5% blood; type: cell-based; conditions: Escherichia coli
# Excerpt: as §2
# [6] = tested on: E. coli JT39 (R+); experiment: MIC in DST agar containing 5% blood; type: cell-based; conditions: Escherichia coli
# Excerpt: as §2
# [7] = tested on: Kleb. aerogenes A; experiment: MIC in DST agar containing 5% blood; type: cell-based; conditions: Klebsiella aerogenes
# Excerpt: as §2
# [8] = tested on: Prot. mirabilis C977; experiment: MIC in DST agar containing 5% blood; type: cell-based; conditions: Proteus mirabilis
# Excerpt: as §2
# [9] = tested on: Staph. aureus 1517; experiment: MIC in DST agar containing 5% blood; type: cell-based; conditions: Staphylococcus aureus
# Excerpt: as §2
# [10] = tested on: Staph. aureus Oxford; experiment: MIC in DST agar containing 5% blood; type: cell-based; conditions: Staphylococcus aureus
# Excerpt: as §2
# [11] = tested on: Staph. aureus Russell; experiment: MIC in DST agar containing 5% blood; type: cell-based; conditions: Staphylococcus aureus
# Excerpt: as §2
# [12] = tested on: Strep. faecalis I; experiment: MIC in DST agar containing 5% blood; type: cell-based; conditions: Enterococcus faecalis
# Excerpt: as §2
# [13] = tested on: Strep. pneumoniae; experiment: MIC in DST agar containing 5% blood; type: cell-based; conditions: Streptococcus pneumoniae
# Excerpt: as §2
# [14] = tested on: Strep. pyogenes CN1O; experiment: MIC in DST agar containing 5% blood; type: cell-based; conditions: Streptococcus pyogenes
# Excerpt: as §2
# [15] = overt drug induced toxicity in infected mice at the therapeutic dose; type: in vivo; conditions: sub-cutaneous
# Protocol: as §1
# [16] = read-out: CD50 (the source's name)
smiles,measurement,setting,value
CC1(C)S[C@@H]2[C@H](NC(=O)[C@H](N)c3ccccc3)C(=O)N2[C@H]1C(=O)O [ampicillin],MIC,[1],125 µg/mL
CC1(C)S[C@@H]2[C@H](NC(=O)[C@H](N)c3ccc(O)cc3)C(=O)N2[C@H]1C(=O)O [amoxycillin],ED50,[2],> 1000 mg/kg
"O=C(O)[C@H]1/C(=C/CO)O[C@@H]2CC(=O)N21 [Clavulanic acid sodium, reference compound]",ED50,"[3]; range of results in various tests, read-out: CD50, range of results in various tests",12 to 27 mg/kg
same,ED50,[3]; [16],13 mg/kg
"O=C(O)[C@H]1/C(=C/CN2CCc3ccccc3C2)O[C@@H]2CC(=O)N21 [Example 2, 9-N-(1,2,3,4-Tetrahydroisoquinolyl)deoxyclavulanic acid]",MIC,[4],80 µg/mL
same,MIC,[5],10 µg/mL
same,MIC,[6],40 µg/mL
same,MIC,[7],20 µg/mL
same,MIC,[8],> 80 µg/mL
same,MIC,[9],20 µg/mL
same,MIC,[10],≤ 1.25 µg/mL
same,MIC,[11],≤ 1.25 µg/mL
same,MIC,[12],80 µg/mL
same,MIC,[13],≤ 1.25 µg/mL
same,MIC,[14],≤ 1.25 µg/mL
same,ED50,[3]; [16],3.5 mg/kg
same,anti-bacterial activity in-vivo,[3]; result in words,good anti-bacterial activity in-vivo
same,overt drug induced toxicity,[15],No overt drug induced toxicity was observed
